Reference: US20180057507A1, “INHIBITORS OF DUAL LEUCINE ZIPPER (DLK) KINASE FOR THE TREATMENT OF DISEASE” (Board of Regents, The University of Texas System, priority 2016, published 2018)

Experiments:
human DLK [1] = biological target: T1, human DLK (Homo sapiens, UniProt Q12852); assay: Phospho-cJun Cellular Assay; format: cell-based; design: expressed in transfected cells; conditions: HEK293 cells stably transfected with Dox-inducible human DLK; p-cJun (Ser63); 5 h compound incubation
T1 sequence (Q12852 1-859): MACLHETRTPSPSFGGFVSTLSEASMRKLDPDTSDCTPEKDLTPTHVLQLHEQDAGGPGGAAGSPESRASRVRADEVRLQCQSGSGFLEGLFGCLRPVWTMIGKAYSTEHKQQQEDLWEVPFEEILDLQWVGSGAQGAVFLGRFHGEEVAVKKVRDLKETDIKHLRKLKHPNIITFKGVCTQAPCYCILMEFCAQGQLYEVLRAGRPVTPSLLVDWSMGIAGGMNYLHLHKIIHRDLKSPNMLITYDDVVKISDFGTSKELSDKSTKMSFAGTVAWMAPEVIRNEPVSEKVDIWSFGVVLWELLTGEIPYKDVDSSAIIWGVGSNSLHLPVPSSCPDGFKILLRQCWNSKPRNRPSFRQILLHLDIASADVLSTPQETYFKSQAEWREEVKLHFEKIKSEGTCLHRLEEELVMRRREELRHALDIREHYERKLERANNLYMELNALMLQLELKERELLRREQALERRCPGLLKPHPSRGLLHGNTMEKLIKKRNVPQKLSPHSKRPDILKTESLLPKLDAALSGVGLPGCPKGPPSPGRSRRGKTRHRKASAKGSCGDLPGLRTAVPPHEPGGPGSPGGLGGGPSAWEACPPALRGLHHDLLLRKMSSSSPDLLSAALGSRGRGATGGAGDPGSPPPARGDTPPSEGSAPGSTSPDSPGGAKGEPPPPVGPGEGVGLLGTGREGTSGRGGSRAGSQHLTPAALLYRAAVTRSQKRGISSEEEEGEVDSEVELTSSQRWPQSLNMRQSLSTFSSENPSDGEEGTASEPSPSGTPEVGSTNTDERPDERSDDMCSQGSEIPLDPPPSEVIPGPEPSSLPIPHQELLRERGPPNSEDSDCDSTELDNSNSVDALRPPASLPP
Outline: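 HEK293 cells with doxycycline-induced human DLK (induced 20 h; uninduced cells as negative control) treated with compound for 5 h at 37 °C. Phospho-cJun (Ser63) measured in lysates with detection-antibody kit; IC50 from variable-slope dose-response fit.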

human DLK [2] = biological target: T1, human DLK; assay: DLK Kd Determinations (KINOMEscan KdELECT, DiscoveRx); design: full length of human DLK (amino acids 1-859); host or cells: transiently transfected HEK293 cells; unpurified extract; conditions: fusion protein of full length human DLK (amino acids 1-859) and NFkB DNA binding domain; qPCR readout; duplicate
Outline: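 Competition binding of full-length human DLK (aa 1-859)-NFkB DBD fusion, DNA-tagged, from HEK293 extracts against an immobilized ligand; 1 h at room temperature, 0.9% DMSO. Bead-bound kinase was quantified by qPCR. Kd came from an 11-point 3-fold series (top 30,000 nM), in duplicate, with Hill slope fixed at −1.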

| Structure (SMILES) | IC50 (human DLK [1]) | Kd (human DLK [2]) |
| --- | --- | --- |
| Nc1ncc(-c2cn([C@H]3[C@@H]4CN(C5CCOCC5)C[C@@H]43)c(CC3CC3)n2)cc1OC(F)(F)F [Example 97, 5-(2-(cyclopropylmethyl)-1-((1R,5S,6s)-3-(tetrahydro-2H-pyran-4-yl)-3-azabicyclo[3.1.0]hexan-6-yl)-1H-imidazol-4-yl)-3-(trifluoromethoxy)pyridin-2-amine] | 1.9 µM | 0.057 µM |
| CC1COCCN1C1CC2C(C1)C2n1cc(-c2cnc(N)c(OC(F)(F)F)c2)nc1C1CC1 (stereo not shown) [Example 147, 5-(2-cyclopropyl-1-(3-(3-methylmorpholino)bicyclo[3.1.0]hexan-6-yl)-1H-imidazol-4-yl)-3-(trifluoromethoxy)pyridin-2-amine] | 0.893 µM | 0.023 µM |
| COCCN1C[C@@H]2[C@H](C1)[C@H]2n1cc(-c2cnc(N)c(OC(F)F)c2)nc1CC1CC1 [Example 117, 5-(2-(cyclopropylmethyl)-1-((1R,5S,6s)-3-(2-methoxyethyl)-3-azabicyclo[3.1.0]hexan-6-yl)-1H-imidazol-4-yl)-3-(difluoromethoxy)pyridin-2-amine] | 0.987 µM | 0.048 µM |
| Nc1ncc(-c2cn([C@H]3[C@@H]4CC(N5CCN(CCF)CC5)C[C@@H]43)c(CC3CC3)n2)cc1OC(F)(F)F (single isomer, unassigned) [Example 152b, 5-(2-(cyclopropylmethyl)-1-(3-(4-(2-fluoroethyl)piperazin-1-yl)bicyclo[3.1.0]hexan-6-yl)-1H-imidazol-4-yl)-3-(trifluoromethoxy)pyridin-2-amine] | 1.15 µM | 0.013 µM |
| C[C@H]1COCCN1C1C[C@@H]2[C@H](C1)[C@H]2n1cc(-c2cnc(N)c(C(F)(F)F)c2)nc1C1CC1 (single isomer, unassigned) [Example 140b] | 0.636 µM | 0.0375 µM |
